From patent US20200360364A1, “METHODS AND COMPOSITIONS FOR TREATING INFLAMMATORY OR AUTOIMMUNE DISEASES OR CONDITIONS USING CHRNA6 ACTIVATORS” (Flagship Pioneering Innovations V, Inc., priority 2018, published 2020)
Like-named read-outs stand apart in the source and are kept apart here.

Tested on: iTreg-mediated immunosuppression of CD8+ T-cell activation
Format: cell-based, human
Settings: for Fold Change % IFNγ+ CD8+ Relative to No Compound Condition: 2 nM final concentration

## CN1CCCC1c1cccnc1 (stereo not shown) [nicotine]
Donor BX23981, CD4+ T-cell:CD8+ T-cell ratio 1:2
  Fold Change % IFNγ+ CD8+ Relative to No Compound Condition: 1.20 ± 0.038
Donor BX23981, CD4+ T-cell:CD8+ T-cell ratio 2:1
  Fold Change % IFNγ+ CD8+ Relative to No Compound Condition: 0.88 ± 0.035
Donor BX24250, CD4+ T-cell:CD8+ T-cell ratio 1:2
  Fold Change % IFNγ+ CD8+ Relative to No Compound Condition: 0.84 ± 0.10
Donor BX24250, CD4+ T-cell:CD8+ T-cell ratio 2:1
  Fold Change % IFNγ+ CD8+ Relative to No Compound Condition: 1.07 ± 0.046
Donor BX26425, CD4+ T-cell:CD8+ T-cell ratio 1:1
  Fold Change % IFNγ+ CD8+ Relative to No Compound Condition: 0.31 ± 0.089
Donor BX26425, CD4+ T-cell:CD8+ T-cell ratio 1:2
  Fold Change % IFNγ+ CD8+ Relative to No Compound Condition: 0.42 ± 0.044
Donor BX26425, CD4+ T-cell:CD8+ T-cell ratio 2:1
  Fold Change % IFNγ+ CD8+ Relative to No Compound Condition: 0.18 ± 0.11
Donor BX26825, CD4+ T-cell:CD8+ T-cell ratio 1:1
  Fold Change % IFNγ+ CD8+ Relative to No Compound Condition: 0.70 ± 0.10
Donor BX26825, CD4+ T-cell:CD8+ T-cell ratio 1:2
  Fold Change % IFNγ+ CD8+ Relative to No Compound Condition: 0.91 ± 0.14
Donor BX27275, CD4+ T-cell:CD8+ T-cell ratio 1:1
  Fold Change % IFNγ+ CD8+ Relative to No Compound Condition: 1.16 ± 0.12
Donor BX27275, CD4+ T-cell:CD8+ T-cell ratio 2:1
  Fold Change % IFNγ+ CD8+ Relative to No Compound Condition: 1.38 ± 0.41
Donor BX27275, CD4+ T-cell:CD8+ T-cell ratio 2:1 (first line)
  Fold Change % IFNγ+ CD8+ Relative to No Compound Condition: 0.9 ± 0.12
Final concentration of 2 nM, added at beginning of iTreg/CD8+ co-culture, read three days after co-culture
  IFNγ+CD8+ T-cells in co-culture: trend of decreasing IFNγ+CD8+ T-cells
